In patent US20070299092A1 (Wyeth, priority 2004, published 2007):
pIC50: −log10 of the molar value. Read-outs that look alike come from different tables or passages of the source.

What was measured:
[1] = molecular target: KDR (Homo sapiens, UniProt P35968); assay: cell-based; conditions: read-out: % Inhibition of KDR kinase autophosphorylation in KDR15 cells, compound conc. 1000 nM
[2] = molecular target: T1, human KDR (VEGF-receptor-2) (Homo sapiens, UniProt P35968); assay: KDR kinase enzyme assay (DELFIA, KDR-IC-Flag, poly(Glu4-Tyr) peptide); format: biochemical; conditions: for inhibition at 0.1 µM: Concentration 100 nM; for inhibition at 1 µM: Concentration 1000 nM
T1 construct: beginning at Met-806; (5′-ATG GAT CCA GAT GM CTC CCA TTG) and ending at Val-1356; made in house

[3] = ATP conc. 10 μM, read-out: % Inhibition

T1 sequence (P35968 806-1356): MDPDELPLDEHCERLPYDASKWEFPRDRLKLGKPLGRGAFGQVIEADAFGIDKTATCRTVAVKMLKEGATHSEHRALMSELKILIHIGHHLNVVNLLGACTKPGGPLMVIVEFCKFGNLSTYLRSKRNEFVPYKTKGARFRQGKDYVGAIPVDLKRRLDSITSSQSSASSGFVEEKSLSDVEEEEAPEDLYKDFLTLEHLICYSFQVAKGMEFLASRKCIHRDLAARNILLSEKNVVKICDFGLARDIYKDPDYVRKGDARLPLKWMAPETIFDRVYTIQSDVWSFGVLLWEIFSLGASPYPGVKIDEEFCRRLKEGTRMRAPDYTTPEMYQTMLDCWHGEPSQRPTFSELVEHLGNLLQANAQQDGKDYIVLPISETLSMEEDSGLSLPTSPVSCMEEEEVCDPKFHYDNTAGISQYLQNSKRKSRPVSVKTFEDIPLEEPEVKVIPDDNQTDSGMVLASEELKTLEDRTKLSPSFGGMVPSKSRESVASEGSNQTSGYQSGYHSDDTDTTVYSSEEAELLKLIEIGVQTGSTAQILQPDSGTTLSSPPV
KDR, sequence (P35968 20-1356): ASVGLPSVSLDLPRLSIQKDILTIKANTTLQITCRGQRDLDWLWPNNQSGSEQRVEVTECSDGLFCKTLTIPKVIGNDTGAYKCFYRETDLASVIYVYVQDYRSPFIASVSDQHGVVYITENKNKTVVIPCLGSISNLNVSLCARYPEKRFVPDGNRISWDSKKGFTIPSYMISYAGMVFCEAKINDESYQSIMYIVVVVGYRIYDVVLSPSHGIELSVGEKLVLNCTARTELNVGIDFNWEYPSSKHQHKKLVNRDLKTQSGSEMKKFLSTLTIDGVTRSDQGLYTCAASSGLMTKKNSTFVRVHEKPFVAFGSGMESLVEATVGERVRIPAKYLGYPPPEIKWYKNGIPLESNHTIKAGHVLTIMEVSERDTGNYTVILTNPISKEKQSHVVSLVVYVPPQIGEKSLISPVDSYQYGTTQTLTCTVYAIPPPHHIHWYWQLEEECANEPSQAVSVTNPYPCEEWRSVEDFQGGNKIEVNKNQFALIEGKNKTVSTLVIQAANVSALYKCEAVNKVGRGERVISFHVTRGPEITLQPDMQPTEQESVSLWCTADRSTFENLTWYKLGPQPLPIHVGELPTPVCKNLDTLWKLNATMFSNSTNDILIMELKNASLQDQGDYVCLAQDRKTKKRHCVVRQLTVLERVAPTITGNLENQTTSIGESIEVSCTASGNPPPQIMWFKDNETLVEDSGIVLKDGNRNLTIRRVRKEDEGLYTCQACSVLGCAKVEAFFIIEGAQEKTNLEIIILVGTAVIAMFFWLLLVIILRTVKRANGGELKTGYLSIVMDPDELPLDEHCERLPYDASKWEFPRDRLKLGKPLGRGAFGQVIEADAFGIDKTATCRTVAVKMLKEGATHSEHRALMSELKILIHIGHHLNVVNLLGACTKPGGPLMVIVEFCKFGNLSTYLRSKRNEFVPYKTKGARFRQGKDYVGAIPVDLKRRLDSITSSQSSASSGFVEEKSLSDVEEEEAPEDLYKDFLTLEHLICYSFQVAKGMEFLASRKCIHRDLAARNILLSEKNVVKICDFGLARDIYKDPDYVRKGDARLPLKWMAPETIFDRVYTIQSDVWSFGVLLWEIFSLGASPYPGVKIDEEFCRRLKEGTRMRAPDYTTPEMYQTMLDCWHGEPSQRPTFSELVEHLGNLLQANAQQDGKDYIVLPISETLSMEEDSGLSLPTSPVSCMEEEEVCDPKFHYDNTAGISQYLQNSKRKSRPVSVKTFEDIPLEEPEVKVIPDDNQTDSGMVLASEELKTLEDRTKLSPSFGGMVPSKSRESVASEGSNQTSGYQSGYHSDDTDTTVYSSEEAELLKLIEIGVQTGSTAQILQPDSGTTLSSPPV

| Structure (SMILES) | inhibition at 1 µM [1] | inhibition at 0.1 µM ([2]; ATP conc. 10 μM) | inhibition at 1 µM ([2]; ATP conc. 10 μM) | inhibition at 1 µM ([2]; ATP conc. 1000 μM) | inhibition at 0.1 µM [2, 3] | inhibition at 1 µM [2, 3] | inhibition at 1 µM ([2]; ATP conc. 1000 μM, read-out: % Inhibition) | pIC50 ([2]; ATP conc. 10 μM) |
| --- | --- | --- | --- | --- | --- | --- | --- | --- |
| COCCOc1cc2ncnc(NC3=CC(=O)C(Oc4cccc(Cl)c4)=CC3=O)c2cc1OC [Example 33, 2-(3-chlorophenoxy)-5-{[6-methoxy-7-(2-methoxyethoxy)quinazolin-4-yl]amino}benzo-1,4-quinone] | 19% | 84% | 96% | 98% |  |  |  |  |
| COCCOc1cc2ncnc(NC3=CC(=O)C(Oc4cccc(C(C)=O)c4)=CC3=O)c2cc1OC [Example 34, 2-(3-acetylphenoxy)-5-{[6-methoxy-7-(2-methoxyethoxy)quinazolin-4-yl]amino}benzo-1,4-quinone] | 12% |  |  |  | 55% | 95% | 97% |  |
| COCCOc1cc2ncnc(NC3=CC(=O)C(Oc4ccc(SC)cc4)=CC3=O)c2cc1OC [Example 35, 2-{[6-methoxy-7-(2-methoxyethoxy)quinazolin-4-yl]amino}-5-[4-(methylthio)phenoxy]benzo-1,4-quinone] | 39% | 87% | 96% | 98% |  |  |  |  |
| CCOC(=O)Cc1ccc(OC2=CC(=O)C(Nc3ncnc4cc(OCCOC)c(OC)cc34)=CC2=O)cc1 [Example 37, ethyl {4-[(4-{[6-methoxy-7-(2-methoxyethoxy)quinazolin-4-yl]amino}-3,6-dioxocyclohexa-1,4-dien-1-yl)oxy]phenyl}acetate] | 11% |  |  |  | 89% | 93% |  |  |
| COCCOc1cc2ncnc(NC3=CC(=O)C(Oc4ccc(CCC(=O)OC)cc4)=CC3=O)c2cc1OC [Example 40, methyl 3-{4-[(4-{[6-methoxy-7-(2-methoxyethoxy)quinazolin-4-yl]amino}-3,6-dioxocyclohexa-1,4-dien-1-yl)oxy]phenyl}propanoate] | 110% |  |  |  | 92% | 94% |  |  |
| COCCOc1cc2ncnc(NC3=CC(=O)C(Oc4ccc(C(=O)OC)cc4)=CC3=O)c2cc1OC [Example 42, methyl 4-[(4-{[6-methoxy-7-(2-methoxyethoxy)quinazolin-4-yl]amino}-3,6-dioxocyclohexa-1,4-dien-1-yl)oxy]benzoate] | 64% |  |  |  | 92% | 94% |  |  |
| CCOC(=O)c1c(C)[nH]c2ccc(OC3=CC(=O)C(Nc4ncnc5cc(OCCOC)c(OC)cc45)=CC3=O)cc12 [Example 45, ethyl 5-[(4-{[6-methoxy-7-(2-methoxyethoxy)quinazolin-4-yl]amino}-3,6-dioxocyclohexa-1,4-dien-1-yl)oxy]-2-methyl-1H-indole-3-carboxylate] | 99% |  |  |  | 92% | 93% |  | 8.59 |
| COCCOc1cc2ncnc(NC3=CC(=O)C(Oc4ccc(Br)cc4)=CC3=O)c2cc1OC [Example 46, 2-(4-bromophenoxy)-5-{[6-methoxy-7-(2-methoxyethoxy)quinazolin-4-yl]amino}benzo-1,4-quinone] | 79% |  |  |  | 93% | 94% |  |  |
| COCCOc1cc2ncnc(NC3=CC(=O)C(Oc4ccc(C)cc4-c4ccno4)=CC3=O)c2cc1OC [Example 47, 2-(2-isoxazol-5-yl-4-methylphenoxy)-5-{[6-methoxy-7-(2-methoxyethoxy)quinazolin-4-yl]amino}benzo-1,4-quinone] | 66% |  |  |  | 86% | 94% |  |  |
| COCCOc1cc2ncnc(NC3=CC(=O)C(Oc4ccc(C(=O)OCc5ccccc5)cc4)=CC3=O)c2cc1OC [Example 48, benzyl 4-[(4-{[6-methoxy-7-(2-methoxyethoxy)quinazolin-4-yl]amino}-3,6-dioxocyclohexa-1,4-dien-1-yl)oxy]benzoate] | 74% |  |  |  | 86% | 93% |  |  |
